Test results: ChEMBL document CHEMBL3885861, “Open TG-GATES”

Species on record: Rattus norvegicus
Test: Open TG-GATES - Regimen: Daily Repeat
Format: toxicity, organism-based, Sprague-Dawley
Design: regimen Daily Repeat, gender Male, age 6 weeks
Conditions: in vivo, po, 400 mg/kg, route gavage, dose level Low; for APTT / Bas / Eos / Fbg / Hb / Ht / Lym / MCH / MCHC / MCV / Mono / Neu / PT / Plat / RBC / Ret / WBC: tissue Blood; for KIDNEY_L / KIDNEY_R / KIDNEY_TOTAL: tissue Kidney; for LIVER: tissue Liver; for A/G / ALP / ALT / AST / BUN / CRE / Ca / Cl / DBIL / GLC / IP / K / LDH / Na / PL / RALB / TBIL / TC / TG / TP / gamma-GTP: tissue Plasma

Compound: CCO [ALCOHOL]
- TERMINAL_BW (72 h, time 3 day): 236 g
- APTT (72 h, time 3 day): 17.7 s
- Bas (72 h, time 3 day): 0%
- Eos (72 h, time 3 day): 1%
- Fbg (72 h, time 3 day): 209.2 mg/dL
- Hb (72 h, time 3 day): 13.4 g/dL
- Ht (72 h, time 3 day): 39.9%
- Lym (72 h, time 3 day): 73.4%
- MCH (72 h, time 3 day): 21.9 pg
- MCHC (72 h, time 3 day): 33.7%
- MCV (72 h, time 3 day): 65 fL
- Mono (72 h, time 3 day): 8.4%
- Neu (72 h, time 3 day): 17%
- PT (72 h, time 3 day): 11.1 s
- Plat (72 h, time 3 day): 134.3 x10_4/uL
- RBC (72 h, time 3 day): 614.8 x10_4/ul
- Ret (72 h, time 3 day): 7.6%
- WBC (72 h, time 3 day): 100.6 x10_2/uL
- KIDNEY_L (72 h, time 3 day): 1 g
- KIDNEY_R (72 h, time 3 day): 1.1 g
- KIDNEY_TOTAL (72 h, time 3 day): 2.1 g
- LIVER (72 h, time 3 day): 11.5 g
- A/G (72 h, time 3 day): 2.3
- ALP (72 h, time 3 day): 965.4 IU/L
- ALT (72 h, time 3 day): 33 IU/L
- AST (72 h, time 3 day): 63.8 IU/L
- BUN (72 h, time 3 day): 17.2 mg/dL
- CRE (72 h, time 3 day): 0.5 mg/dL
- Ca (72 h, time 3 day): 11.1 mg/dL
- Cl (72 h, time 3 day): 104.4 meq/L
- DBIL (72 h, time 3 day): 0.022 mg/dL
- GLC (72 h, time 3 day): 198 mg/dL
- IP (72 h, time 3 day): 7.9 mg/dL
- K (72 h, time 3 day): 4.5 meq/L
- LDH (72 h, time 3 day): 103.4 IU/L
- Na (72 h, time 3 day): 140.6 meq/L
- PL (72 h, time 3 day): 140.6 mg/dL
- RALB (72 h, time 3 day): 4 g/dL
- TBIL (72 h, time 3 day): 0.3 mg/dL
- TC (72 h, time 3 day): 73 mg/dL
- TG (72 h, time 3 day): 82.8 mg/dL
- TP (72 h, time 3 day): 5.7 g/dL
- gamma-GTP (72 h, time 3 day): 2.4 IU/L
- TERMINAL_BW ([…], time 7 day): 263.9 g
- TERMINAL_BW ([…], time 14 day): 307 g
- TERMINAL_BW ([…], time 28 day): 352 g
- APTT ([…], time 7 day): 17.6 s
- Bas ([…], time 7 day): 0%
- Eos ([…], time 7 day): 0.8%
- Fbg ([…], time 7 day): 219.6 mg/dL
- Hb ([…], time 7 day): 14.1 g/dL
- Ht ([…], time 7 day): 41.5%
- Lym ([…], time 7 day): 79.6%
- MCH ([…], time 7 day): 21.1 pg
- MCHC ([…], time 7 day): 34.1%
- MCV ([…], time 7 day): 62 fL
- Mono ([…], time 7 day): 5.2%
- Neu ([…], time 7 day): 14.2%
- PT ([…], time 7 day): 11.2 s
- Plat ([…], time 7 day): 133.9 x10_4/uL
- RBC ([…], time 7 day): 669.2 x10_4/ul
- Ret ([…], time 7 day): 5.7%
- WBC ([…], time 7 day): 101.8 x10_2/uL
- APTT ([…], time 14 day): 16.7 s
- Bas ([…], time 14 day): 0%
- Eos ([…], time 14 day): 1%
- Fbg ([…], time 14 day): 217.6 mg/dL
- Hb ([…], time 14 day): 15 g/dL
- Ht ([…], time 14 day): 43.7%
- Lym ([…], time 14 day): 80.6%
- MCH ([…], time 14 day): 20.2 pg
- MCHC ([…], time 14 day): 34.3%
- MCV ([…], time 14 day): 58.9 fL
- Mono ([…], time 14 day): 5.6%
- Neu ([…], time 14 day): 12.8%
- PT ([…], time 14 day): 11.3 s
- Plat ([…], time 14 day): 127.7 x10_4/uL
- RBC ([…], time 14 day): 742.4 x10_4/ul
- Ret ([…], time 14 day): 4.2%
- WBC ([…], time 14 day): 122.9 x10_2/uL
- APTT ([…], time 28 day): 17.2 s
- Bas ([…], time 28 day): 0%
- Eos ([…], time 28 day): 1.6%
- Fbg ([…], time 28 day): 212 mg/dL
- Hb ([…], time 28 day): 15.7 g/dL
- Ht ([…], time 28 day): 46.9%
- Lym ([…], time 28 day): 80.4%
- MCH ([…], time 28 day): 18.8 pg
- MCHC ([…], time 28 day): 33.6%
- MCV ([…], time 28 day): 55.9 fL
- Mono ([…], time 28 day): 6%
- Neu ([…], time 28 day): 12.4%
- PT ([…], time 28 day): 11.3 s
- Plat ([…], time 28 day): 126.5 x10_4/uL
- RBC ([…], time 28 day): 839 x10_4/ul
- Ret ([…], time 28 day): 7.1%
- WBC ([…], time 28 day): 104.7 x10_2/uL
- KIDNEY_L ([…], time 7 day): 1.1 g
- KIDNEY_R ([…], time 7 day): 1.1 g
- KIDNEY_TOTAL ([…], time 7 day): 2.2 g
- KIDNEY_L ([…], time 14 day): 1.2 g
- KIDNEY_R ([…], time 14 day): 1.2 g
- KIDNEY_TOTAL ([…], time 14 day): 2.3 g
- KIDNEY_L ([…], time 28 day): 1.3 g
- KIDNEY_R ([…], time 28 day): 1.3 g
- KIDNEY_TOTAL ([…], time 28 day): 2.6 g
- LIVER ([…], time 7 day): 12.6 g
- LIVER ([…], time 14 day): 13.1 g
- LIVER ([…], time 28 day): 13.5 g
- A/G ([…], time 7 day): 2.3
- ALP ([…], time 7 day): 771.4 IU/L
- ALT ([…], time 7 day): 33.2 IU/L
- AST ([…], time 7 day): 63.4 IU/L
- BUN ([…], time 7 day): 20.8 mg/dL
- CRE ([…], time 7 day): 0.5 mg/dL
- Ca ([…], time 7 day): 10.6 mg/dL
- Cl ([…], time 7 day): 104.6 meq/L
- DBIL ([…], time 7 day): 0 mg/dL
- GLC ([…], time 7 day): 197 mg/dL
- IP ([…], time 7 day): 8.1 mg/dL
- K ([…], time 7 day): 4.7 meq/L
- LDH ([…], time 7 day): 95 IU/L
- Na ([…], time 7 day): 141.6 meq/L
- PL ([…], time 7 day): 158.2 mg/dL
- RALB ([…], time 7 day): 4.1 g/dL
- TBIL ([…], time 7 day): 0.4 mg/dL
- TC ([…], time 7 day): 76.2 mg/dL
- TG ([…], time 7 day): 156.4 mg/dL
- TP ([…], time 7 day): 5.8 g/dL
- gamma-GTP ([…], time 7 day): 1.4 IU/L
- A/G ([…], time 14 day): 2
- ALP ([…], time 14 day): 804.6 IU/L
- ALT ([…], time 14 day): 36 IU/L
- AST ([…], time 14 day): 59.2 IU/L
- BUN ([…], time 14 day): 19.2 mg/dL
- CRE ([…], time 14 day): 0.5 mg/dL
- Ca ([…], time 14 day): 11 mg/dL
- Cl ([…], time 14 day): 105.2 meq/L
- DBIL ([…], time 14 day): 0.028 mg/dL
- GLC ([…], time 14 day): 207.4 mg/dL
- IP ([…], time 14 day): 7.4 mg/dL
- K ([…], time 14 day): 4.2 meq/L
- LDH ([…], time 14 day): 103.2 IU/L
- Na ([…], time 14 day): 142.2 meq/L
- PL ([…], time 14 day): 150.8 mg/dL
- RALB ([…], time 14 day): 3.9 g/dL
- TBIL ([…], time 14 day): 0.4 mg/dL
- TC ([…], time 14 day): 73 mg/dL
- TG ([…], time 14 day): 116.8 mg/dL
- TP ([…], time 14 day): 5.9 g/dL
- gamma-GTP ([…], time 14 day): 0.6 IU/L
- A/G ([…], time 28 day): 1.6
- ALP ([…], time 28 day): 710 IU/L
- ALT ([…], time 28 day): 30.2 IU/L
- AST ([…], time 28 day): 64 IU/L
- BUN ([…], time 28 day): 20 mg/dL
- CRE ([…], time 28 day): 0.6 mg/dL
- Ca ([…], time 28 day): 10.4 mg/dL
- Cl ([…], time 28 day): 107 meq/L
- DBIL ([…], time 28 day): 0.002 mg/dL
- GLC ([…], time 28 day): 205.6 mg/dL
- IP ([…], time 28 day): 6.4 mg/dL
- K ([…], time 28 day): 4.3 meq/L
- LDH ([…], time 28 day): 96.4 IU/L
- Na ([…], time 28 day): 140.4 meq/L
- PL ([…], time 28 day): 141.4 mg/dL
- RALB ([…], time 28 day): 3.8 g/dL
- TBIL ([…], time 28 day): 0.3 mg/dL
- TC ([…], time 28 day): 69.4 mg/dL
- TG ([…], time 28 day): 113.6 mg/dL
- TP ([…], time 28 day): 6.1 g/dL
- gamma-GTP ([…], time 28 day): 1.4 IU/L
